Results from patent publication US7173129B2, “Sulfonamide-substituted chalcone derivatives and their use to treat diseases” (Athero Genics, Inc., priority 2003, dated 2007).
pIC50: −log10 of the molar value. Structures can show the parent of a compound that is named as a salt.

Assays:
VCAM-1 = test: In Vitro VCAM-1 Assay (TNF-α stimulated endothelial cells, cell-surface ELISA); format: cell-based; conditions: primary human aortic (HAEC) or pulmonary (HPAEC) endothelial cells, TNF-α 1 ng/ml, approximately 16 hours, ELISA OD 450 nm
Experimental: Cell Culture and compound dosing: Cultured primary human aortic (HAEC) or pulmonary (HPAEC) endothelial cells were obtained from Clonetics, Inc., and were used below passage 9. Cells were seeded in 96 well plates such that they would reach 90–95% confluency by the following day. On the following day the cells were stimulated with TNF-α (1 ng/ml) in the presence or absence of compounds dissolved in DMSO such that the final concentration of DMSO is 0.25% or less. To establish a dose curve for each compound, four concentrations in 2- to 5-fold increments were used. Cells were exposed to TNF-α and compounds for approximately 16 hours. The next day the cells were examined under microscope to score for visual signs of toxicity or cell stress.
Following 16 hr exposure to TNF-α and compound the media was discarded and the cells were washed once with Hanks Balanced Salt Solution (HBSS)/Phosphate buffered saline (PBS) (1:1). Primary antibodies against VCAM-1 (0.25 μg/ml in HBSS/PBS+5% FBS) were added and incubated for 30–60 minutes at 37° C. Cells were washed with HBSS/PBS three times, and secondary antibody Horse Radish Peroxidase (HRP)-conjugated goat anti-mouse IgG (1:500 in HBSS/PBS+5% FBS) were added and incubated for 30 minutes at 37° C. Cells were washed with HBSS/PBS four time and TMB substrate were added and incubated at room temperature in the dark until there was adequate development of blue color. The length of time of incubation was typically 5–15 minutes. 2N sulfuric acid was added to stop the color development and the data was collected by reading the absorbance on a BioRad ELISA plate reader at OD 450 nm. The results are expressed as IC50 values (the concentration (micromolar) of compound required to inhibit 50% of the maximal response of the control sample stimulated by TNF-α only).

[1] = Homo sapiens, Endothelial cell, 16 h

| SMILES | melting point | pIC50 (VCAM-1; [1]) | pIC50 (VCAM-1) |
| --- | --- | --- | --- |
| COc1cc(OC)c(-c2cccs2)cc1/C=C/C(=O)c1ccc(S(=O)(=O)Nc2cc(C)on2)cc1 (as salt: sodium) [Example 2, 4-[3E-(2,4-Dimethoxy-5-thien-2-ylphenyl)acryloyl]-N-(5-methylisoxazol-3-yl)benzenesulfonamide sodium salt] | > 260 °C |  |  |
| COc1cc(OC)c(-c2cc3ccccc3n2C)cc1/C=C/C(=O)c1ccc(S(=O)(=O)Nc2cc(C)on2)cc1 (as salt: sodium) [Example 16, 4-{3E-[2,4-Dimethoxy-5-(1-methyl-1H-indol-2-yl)phenyl]acryloyl}-N-(5-methylisoxazol-3-yl)benzenesulfonamide sodium salt] | 202 to 206 °C |  |  |
| COc1cc(OC)c(-c2cccs2)cc1/C=C/C(=O)c1ccc(S(=O)(=O)NCC(F)(F)F)cc1 (as salt: sodium) [Example 25, 4-[3E-(2,4-Dimethoxy-5-thien-2-ylphenyl)acryloyl]-N-(2,2,2-trifluoroethyl)benzenesulfonamide sodium salt] | 160 to 170 °C |  |  |
| COc1cc(OC)c(-c2cccs2)cc1/C=C/C(=O)c1ccc(S(=O)(=O)Nc2cc(C)on2)cc1 [Example 1, 4-[3E-(2,4-Dimethoxy-5-thien-2-yl-phenyl)acryloyl]-N-(5-methylisoxazol-3-yl)benzenesulfonamide] | 202 to 203 °C | > 5.30 |  |
| COc1cc(OC)c(-c2cccs2)cc1/C=C/C(=O)c1ccc(S(=O)(=O)Nc2ncccn2)cc1 [Example 3, 4-[3E-(2,4-Dimethoxy-5-thien-2-ylphenyl)acryloyl]-N-pyrimidin-2-ylbenzenesulfonamide] | 215 °C (dec.) | > 5.30 |  |
| COc1cc(OC)c(-c2cccs2)cc1/C=C/C(=O)c1ccc(S(=O)(=O)Nc2nnn[nH]2)cc1 [Example 4, 4-[3E-(2,4-Dimethoxy-5-thien-2-ylphenyl)acryloyl]-N-(1-H-tetrazol-5-yl)benzenesulfonamide] |  |  | < 5.00 |
| COc1cc(OC)c(-c2cccs2)cc1/C=C/C(=O)c1ccc(S(=O)(=O)Nc2ccccn2)cc1 [Example 5, 4-[3E-(2,4-Dimethoxy-5-thien-2-ylphenyl)acryloyl]-N-pyridin-2-ylbenzenesulfonamide] | 141 to 143 °C | > 5.30 |  |
| COc1cc(OC)c(-c2cccs2)cc1/C=C/C(=O)c1ccc(S(=O)(=O)Nc2cc[nH]n2)cc1 [Example 6, 4-[3E-(2,4-Dimethoxy-5-thien-2-ylphenyl)acryloyl]-N-(1H-pyrazol-3-yl)benzenesulfonamide] | 142 to 145 °C | > 5.30 |  |
| COc1cc(OC)c(-c2cccs2)cc1/C=C/C(=O)c1ccc(S(=O)(=O)Nc2ccon2)cc1 [Example 7, 4-[3E-(2,4-Dimethoxy-5-thien-2-ylphenyl)acryloyl]-N-isoxazol-3-ylbenzenesulfonamide] | 198 to 199 °C | > 5.30 |  |
| COc1cc(OC)c(-c2cccs2)cc1/C=C/C(=O)c1ccc(S(=O)(=O)Nc2nccs2)cc1 [Example 8, 4-[3E-(2,4-Dimethoxy-5-thien-2-ylphenyl)acryloyl]-N-thiazol-2-ylbenzenesulfonamide] | 220 to 221 °C | > 5.30 |  |
| COc1cc(OC)c(-c2cccs2)cc1/C=C/C(=O)c1ccc(S(=O)(=O)Nc2cc(C)no2)cc1 [Example 9] |  |  | > 5.00 |
| COc1cc(OC)c(-c2cccs2)cc1/C=C/C(=O)c1ccc(S(=O)(=O)Nc2ccc(Cl)cn2)cc1 [Example 10, N-(5—Chloropyridin-2-yl)-4-[3E-(2,4-dimethoxy-5-thien-2-ylphenyl)acryloyl]benzenesulfonamide] | 228 to 229 °C | > 5.00 |  |
| COc1cc(OC)c(-c2cccs2)cc1/C=C/C(=O)c1ccc(S(=O)(=O)Nc2ccc(F)cn2)cc1 [Example 11, 4-[3E-(2,4-Dimethoxy-5-thien-2-ylphenyl)acryloyl]-N-(5-fluoropyridin-2-yl)benzenesulfonamide] | 194 to 195 °C | > 5.30 |  |
| COc1cc(OC)c(-c2cccs2)cc1/C=C/C(=O)c1ccc(S(=O)(=O)Nc2ccc(C(F)(F)F)cn2)cc1 [Example 12, 4-[3E-(2,4-Dimethoxy-5-thien-2-ylphenyl)acryloyl]-N-(5-trifluoromethylpyridin-2-yl)benzenesulfonamide] | 228 to 229 °C | > 5.00 |  |
| COc1cc(OCC(CO)CO)c(/C=C/C(=O)c2ccc(S(=O)(=O)Nc3cc(C)on3)cc2)cc1-c1cccs1 [Example 13, 4-{3E-[2-(3-Hydroxy-2-hydroxymethylpropoxy)-4-methoxy-5-thien-2-ylphenyl]acryloyl}-N-(5-methylisoxazol-3-yl)benzenesulfonamide] | 165 to 166 °C | < 5.00 |  |
| COc1cc(OCCN2CCOCC2)c(/C=C/C(=O)c2ccc(S(=O)(=O)Nc3cc(C)on3)cc2)cc1-c1cccs1.Cl [Example 14, 4-{3E-[4-Methoxy-2-(2-morpholin-4-yl-ethoxy)-5-thien-2-ylphenyl]acryloyl}-N-(5-methyl-isoxazol-3-yl)benzenesulfonamide hydrochloride] | > 260 °C | > 5.30 |  |
| COc1cc(OC)c(-c2cc3ccccc3n2C)cc1/C=C/C(=O)c1ccc(S(=O)(=O)Nc2cc(C)on2)cc1 [Example 16, 4-{3E-[2,4-Dimethoxy-5-(1-methyl-1H-indol-2-yl)phenyl]acryloyl}-N-(5-methylisoxazol-3-yl)benzenesulfonamide sodium salt] |  | > 5.30 |  |
| COc1cc(OC)c(-c2cc3ccccc3n2C)cc1/C=C/C(=O)c1ccc(S(=O)(=O)NCc2cccnc2)cc1 [Example 17, 4-{3E-[2,4-Dimethoxy-5-(1-methyl-1H-indol-2-yl)phenyl]acryloyl}-N-pyridin-3-ylmethy-benzenesulfonamide] |  |  | > 5.00 |
| COc1cc(OC)c(-c2cc3ccccc3n2C)cc1/C=C/C(=O)c1ccc(S(=O)(=O)NCCN2CCOCC2)cc1 [Example 18, 4-{3E-[2,4-Dimethoxy-5-(1-methyl-1H-indol-2-yl)phenyl]acryloyl}-N-(2-morpholin-4-yl-ethyl)benzenesulfonamide] | 167 to 168 °C | > 5.00 |  |
| COc1cc(OC)c(-c2cccs2)cc1/C=C/C(=O)c1ccc(S(=O)(=O)N2CCN(C)CC2)cc1 [Example 21, 3E-(2,4-Dimethoxy-5-thien-2-ylphenyl)-1-[4-(4-methylpiperazine-1-sulfonyl)phenyl]propenone] |  |  | > 5.00 |
| COc1cc(OC)c(-c2cccs2)cc1/C=C/C(=O)c1ccc(S(=O)(=O)N2CCCCC2C(=O)O)cc1 (stereo not shown) [Example 28, 1-{4-[3E-(2,4-Dimethoxy-5-thien-2-ylphenyl)acryloyl]benzenesulfonyl}piperidine-2-carboxylic acid] |  | > 5.00 |  |
| COc1cc(OC)c(-c2cc3ccccc3[nH]2)cc1/C=C/C(=O)c1ccc(S(=O)(=O)[N-]C(=O)C(C)C)cc1.[Na+] [Example 36, 4-{3E-[5-(1H-Indol-2-yl)-2,4-dimethoxyphenyl]acryloyl}-N-isobutyrylbenzenesulfonamide sodium salt] | 249 to 251 °C (dec.) |  |  |
| CCOC(=O)[N-]S(=O)(=O)c1ccc(C(=O)/C=C/c2cc(-c3cc4ccccc4[nH]3)c(OC)cc2OC)cc1.[K+] [Example 40, N-Ethoxycarbonyl-4-{3E-[5-(1H-indol-2-yl)-2,4-dimethoxyphenyl]acryloyl}benzenesulfonamide potassium salt] | 220 to 222 °C |  |  |
| CCOC(=O)NS(=O)(=O)c1ccc(C(=O)/C=C/c2cc(-c3cc4ccccc4[nH]3)c(OC)cc2OC)cc1 [Example 41, N-Ethoxycarbonyl-4-{3E-[5-(1H-indol-2-yl)-2,4-dimethoxyphenyl]acryloyl}benzenesulfonamide] |  | > 5.30 |  |
| CCC(=O)[N-]S(=O)(=O)c1ccc(C(=O)/C=C/c2cc(-c3cc4ccccc4[nH]3)c(OC)cc2OC)cc1.[Na+] [Example 46, 4-{3E-[5-(1H-Indol-2-yl)-2,4-dimethoxyphenyl]acryloyl}-N-propionylbenzenesulfonamide sodium salt] | > 250 °C |  |  |
| CCCC(=O)NS(=O)(=O)c1ccc(C(=O)/C=C/c2cc(-c3cc4ccccc4[nH]3)c(OC)cc2OC)cc1 [Example 47, N-Butyryl-4-{3E-[5-(1H-indol-2-yl)-2,4-dimethoxyphenyl]acryl}benzenesulfonamide] |  | > 5.30 |  |
| CCCC(=O)NS(=O)(=O)c1ccc(C(=O)/C=C/c2cc(N3CCCC3)c(OC)cc2OC)cc1 [Example 48, N-Butyryl-4-[3E-(2,4-dimethoxy-5-pyrrolidin-1-ylphenyl)acryloyl]benzenesulfonamide] |  | > 5.30 |  |
| CCCC(=O)[N-]S(=O)(=O)c1ccc(C(=O)/C=C/c2cc(-c3cc4ccccc4[nH]3)c(OC)cc2OC)cc1.[Na+] [Example 49, N-Butyryl-4-{3E-[5-(1H-indol-2-yl)-2,4-dimethoxyphenyl]acryloyl}benzenesulfonamide sodium salt] | 191 to 193 °C |  |  |
